Test results: PMC7579925, “Complementary NAD^+ replacement strategies fail to functionally protect dystrophin-deficient muscle” (Skeletal Muscle, 2020)

Target: T1, CD38 (Mus musculus, UniProt P56528)
T1 construct: recombinant soluble (extracellular) domain, expressed in and purified from Pichia pastoris
T1 sequence (P56528 45-304 limits assumed): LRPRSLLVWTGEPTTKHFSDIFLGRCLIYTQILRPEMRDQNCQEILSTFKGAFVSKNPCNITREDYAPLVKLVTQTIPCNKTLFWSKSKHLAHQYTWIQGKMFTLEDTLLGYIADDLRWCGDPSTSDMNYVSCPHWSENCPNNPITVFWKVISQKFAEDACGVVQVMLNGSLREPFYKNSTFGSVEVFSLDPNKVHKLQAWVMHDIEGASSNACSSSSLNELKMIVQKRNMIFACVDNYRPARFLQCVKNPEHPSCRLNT
Assay: colorimetric base-exchange (transglycosidation) assay, dose-response
Format: biochemical

Question: With GSK978A as the substance, how does the IC50 read?
Answer: ~ 12 ng/mL
